A word on the Inhibition: it is the change of the read-out against control, counted positive when it falls.

SMILES strings stand for the structures.

In ChEMBL document CHEMBL1133097, “N-Terminal dipeptides of D(-)-penicillamine as sequestration agents for acetaldehyde” (2000) one finds Inhibition data, which are given here for 3 molecules.

The nature of test [1]: Percent inhibition in hepatocyte culture system in the presence of cyanamide at 1/20 molar concentration of ethanol and lowered concentration of ethanol-derived AcH. Format: functional, Rattus norvegicus.
Test [2] can be described thus: Percent inhibition in hepatocyte culture system at 1/20 molar concentration of ethanol and lowered concentration of ethanol-derived AcH. In kind it is functional, Rattus norvegicus.

For `CC(C)(NC(=O)[C@H](N)C(C)(C)S)C(=O)O.Cl`, the Inhibition in test [1] is on record as 37%.
`C[C@H](NC(=O)[C@H](N)C(C)(C)S)C(=O)O.Cl`: the Inhibition in test [2] is 84%.
Take `CC(C)(S)[C@@H](N)C(=O)NCC(=O)O.Cl`: the Inhibition in test [2] is on record as 79%; in test [1], 33%.
